The text below walks through data of US20050238740A1, “Use of mastic and its components for the control of microbial infections” (priority 2002, published 2005).

Common to all, as to assay: MTT cytotoxic/cytostatic activity, 48 hours exposure
Holding throughout (assay type): cell-based

For experiment [1], the system named is human epidermoid carcinoma A431. The note with it: for IC50: Homo sapiens, A-431. As for the experimental part:
(§1) Three extracts derived from Pistacia lentiscus var. Chia were tested for their cytotoxic/cytostatic activity against three established cancer cell lines, i.e human mammary adenocarcinoma MCF-7, human colon adenocarcinoma HT-29, and human epidermoid carcinoma A431. A modification of the MTT method (Denizot and Lang, 1986, J Immunol Meth 89, 271) was used for the assessment of cytotoxicity. Briefly, exponentially growing cells were exposed to varying concentrations of the test compounds (or control medium) for 48 hours. Then, the medium was replaced with MTT [3-(4,5-dimethylthiazol-2-yl)-2,5-diphenyltetrazolium bromide] for a further 4 -hour incubation. Finally, the MTT-formazan was solubilized in isopropanol and the optical density was measured at a wavelength of 550 nm and a reference wavelength of 690 nm. A representative example of the semi-log inhibition curves obtained after exposure of A43 1 cells to the three Pistacia lentiscus extracts is illustrated in FIG. 2.
The inhibition curves were used to determine the IC50 of each extract, i.e. the concentration that produced a 50% reduction of the absorbance relative to the absorbance of the control culture. The average IC50s of each extract for each cell line, after at least three independent trials, are presented in the following table (5-fluorouracil a classical chemotherapeutic agent, was included as a positive control in the case of A431 epidermoid carcinoma cells):
We used the methodology of MTT (see Example 6), using A431 cells. The average IC50s of each compound, after at least three independent trials, are presented in the following table (the data of the previous report regarding A431 cells are included in the table for reasons of comparison):
The neutral extract of the essential oil and two of the isolated ingredients, i.e. isomasticadienolic acid, and oleanonic acid were tested for […] activity using the methodology of MTT (Example 7) and three established human cancer cell lines.

Experiment [2] relates to human colon adenocarcinoma HT-29. The note with it: two independent trials, essential oil dissolved in absolute ethanol (Table 11). As for the experimental part:
as §1
The inhibition curves were used to determine the IC50 of each extract, i.e. the concentration that produced a 50% reduction of the absorbance relative to the absorbance of the control culture. […]

Experiment [3] deals with human lung carcinoma A549. As to conditions: two independent trials, essential oil dissolved in absolute ethanol (Table 11).
[4] abbreviates: A431, at least three independent trials (Table 10), read-out: IC50, inhibition of A431 cancer cell proliferation.

Converted amounts (≈) assume the structure as drawn. “And” between values parts separate entries of the source, which are not always exact repeats. Equal values may be shown once. Read-outs that look alike come from different tables or passages of the source.

In the case of `CC1(C)CC[C@]2(C(=O)O)CC[C@]3(C)C(=CC[C@@H]4[C@@]5(C)CCC(=O)C(C)(C)[C@@H]5CC[C@]43C)[C@@H]2C1` [oleanonic, oleanonic acid], the IC50 in experiment [1] (setting [4]) was 17.5 µg/mL and 38.3 µM; in experiment [1] (Epidermoid carcinoma A431, two independent trials, essential oil dissolved in absolute ethanol (Table 11), read-out: average IC50), 45 µg/mL (≈ 99 µM); in experiment [2] (Homo sapiens), 105 µg/mL (≈ 231 µM); in experiment [3] (Homo sapiens), 110 µg/mL (≈ 242 µM).
As to `CC1(C)C=C2[C@H]3CC[C@@H]4[C@@]5(C)CCC(=O)C(C)(C)[C@@H]5CC[C@@]4(C)[C@]3(C)CC[C@@]2(C(=O)O)CC1` [moronic, moronic acid], in experiment [1] (setting [4]), the IC50 is 47.7 µg/mL and 105 µM.
For `O=c1[nH]cc(F)c(=O)[nH]1` [5-fluorouracil, reference compound], the IC50 is 2.25 µg/mL and 17.3 µM in experiment [1] (setting [4]); 2.25 µg/mL (≈ 17.3 µM) in experiment [1] (Epidermoid carcinoma A431, 48 hours, at least three independent trials (Table 9), read-out: IC50, inhibition of cancer cell proliferation).
On to `C/C(=C/CC[C@H](C)[C@@H]1CC[C@]2(C)C3=C(CC[C@@]12C)[C@@]1(C)CC[C@H](O)C(C)(C)[C@@H]1CC3)C(=O)O` [Isomasticadienolic, isomasticadienolic acid], for which the “average IC50” value in experiment [1] (Epidermoid carcinoma A431, two independent trials, essential oil dissolved in absolute ethanol (Table 11)) was 25 (±5) μg/mL; in experiment [2], 95 (±5) μg/mL; in experiment [3], 95 (±5) μg/mL.
